How the values were obtained:
[1] = Dissolution behavior, dialysis diffusion method; type: physicochemical; settings: 37° C., dialysis bag 3,500 D, 4 h
Method: The dissolution behavior of FA-Lipo@Til NCs in Example 3 was measured in different media (water, SGF, and SIF) at 37° C. using the dialysis diffusion method. 1 mL of Til raw material and Til NC preparation (containing 1 mg/mL of Til) were placed in a dialysis bag with a molecular weight cut-off of 3,500 D, which was then placed in 50 mL of dissolution medium and then placed in an oscillator with a frequency of 100 rpm at 37° C. Samples were taken at 1 min, 2 min, 3 min, 5 min, 10 min, 15 min, 30 min, 45 min, 60 min, 90 min, 120 min, 180 min, and 240 min, respectively. After taking the samples, the corresponding volume of medium was supplemented, and the samples were centrifuged (12,000 rpm, 10 min) and determined by HPLC. […] FA-Lipo@Til NCs were released more slowly than Til NCs. At 4 h, approximately 45% (in SGF) and 35% (in SIF) of Til in Lipo@Til NCs and FA-Lipo@Til NCs were released, while the cumulative release from Til NCs exceeded 55% (in SGF) and 65% (in SIF) within 4 h.

[2] = cited from earlier work
[3] = test system: Caco-2 cell monolayer; assay: Caco-2 cell monolayer transport; type: in vitro ADME; settings: Til by HPLC on basolateral side, 50 μg to 100 μg Til
Method: The FA-Lipo@Til NCs obtained in Example 3 were tested using a Caco-2 cell culture monolayer model, Caco-2 cells were collected with a cell plating density of 1×10^5 […]. Cells were inoculated on the upper layer of the Transwell plate, 500 μL of diluted cell suspension was added to each well, and 600 μL of blank MEM medium was added to the lower layer, and the plates were placed in an incubator for culture; after 21 days of continuous culture, appropriate cell wells were selected, the upper and lower layers of the Transwell plate were replaced with HBSS balancing solution, and the plates were balanced in the incubator for 30 min. After removing the buffer, different concentrations of FA-Lipo@Til NCs (all diluted to 300 μL with HBSS containing 10% FBS) were added into the well, 100 μL of sample was taken from the lower layer of the Transwell plate at a specific time point, and an equal amount of HBSS buffer was supplemented, and the samples collected at different time points were used to detect the content of Til by HPLC. The cumulative release amount and Papp of the preparation were calculated. […] The transport amount of raw material Til through the monolayer was the lowest, while Til NCs were transported to the basolateral side over time, which was about 3 times that of the former at 4 h. […] FA ligands enhanced the internalization and transport of nanoparticles.

[4] = 37° C.; cited from earlier work
[5] = test system: atherosclerotic plaques; assay: In vivo pharmacodynamic evaluation in atherosclerosis model (ORO, H&E, Masson staining); design: species or system ApoE-/- mice; settings: p.o., 4 mg/kg once a day, 12 weeks, Model group 51.53%
Method: AS model mice and initial treatment plan: ApoE^-/- mice were fed a high-fat diet for 12 weeks and then randomly divided into 5 groups: Model group (normal saline group); Crude Til group (p.o., 4 mg/kg); Til NCs group (p.o., 4 mg/kg); Lipo@Til NCs group (p.o., 4 mg/kg); FA-Lipo@Til NCs group in Example 3 (p.o., 4 mg/kg). The Control group was replaced by C57BL/6J mice fed with ordinary diet in the same cycle. The drug was administered orally once a day for 12 consecutive weeks, ApoE--mice continued to eat a high-fat diet throughout the treatment, and body weight changes were recorded 2 times a week. After 12 weeks of continuous administration, the mice were fasted but allowed to drink water 12 h before the experiment. Their eyeballs were removed to collect whole blood serum, and then the mice were dissected, their heart was exposed, and a small incision was made in the right atrium, and the whole body was perfused with pre-cooled saline until the outflowing fluid became clear. […]
ORO staining of the entire aorta: fat tissue stained bright red by ORO could interfere with the observation of plaques, such that the fat tissue around the blood vessels needed to be removed with fine forceps under a stereomicroscope. […] After photographing, the images were measured using ImageJ, and the percentage of plaques in the intima area was calculated to correct for differences in body size. […]

For acacetin-7-glucoside [Til], the “cumulative release of Til in SGF” value ([1]; SGF) is listed as “about 4%”, the “cumulative release of Til in SIF” value ([1]; SIF) is listed as “about 4%” and the absolute oral bioavailability [2] is listed as 1.350±0.710%. For the same substance, the “transport through the Caco-2 cell monolayer” value [3] was “lowest”, the “solubility in aqueous media” value [4] was 1.57 µg/mL and the “average plaque area of the aorta (ORO staining)” value [5] was “reduced”.
